One assay deals with Male C57BL/6 Cr mice. Description: Test on suppression of phencyclidine-induced hyperlocomotion in mice. Conditions: Mus musculus, po, 1 h, locomotor activity, test compound 10 mg/kg oral, phencyclidine 5 mg/kg s.c. approx. 1 hour later, measured for 1 hour. The class given is in vivo, mouse. On the procedure: Male C57BL/6 Cr mice (Japan SLC, Inc.) (8 weeks old) were used in the experiment. A test compound was suspended at 1 mg/mL in a 0.5% hydroxypropylcellulose solution to prepare a suspension for administration. The suspension of the test compound or a solvent (0.5% hydroxypropylcellulose solution) was orally administered at a dose of 10 mL/kg to each mouse. After the administration, the mouse was immediately placed in a locomotor activity measurement apparatus (Muromachi Kikai Co., Ltd., locomotor activity measurement system SUPERMEX). Approximately 1 hour later, phencyclidine (5 mg/10 mL/kg) or a solvent (10 mL/kg saline) was subcutaneously administered to the mouse. The locomotor activity was measured from immediately after the subcutaneous administration to 1 hour later.
Percent inhibition exceeding 100 means that when the activity of the phencyclidine administration control group was defined as 100, the activity of the group given a test compound was lower than that of the solvent administration control group.

The next assay deals with PDE10A (Homo sapiens (Human), UniProt Q9Y233). Description: Measurement of PDE10A inhibitory activity-2 (PDE10A fraction prepared from MOLT-4 cells). In kind it is biochemical. Conditions: PDE10A fraction from MOLT-4 cells (peak around 250 mM NaCl). The gist of the method:
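Enzyme source was a PDE10A-containing fraction from MOLT-4 cell soluble extract, resolved by HiTrap Q anion exchange with a 0–0.8 M NaCl gradient and selected by cAMP-hydrolysing activity. IC50 determined with this fraction by the same procedure as the preceding PDE10A assay.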

Structures can show the parent of a compound that is named as a salt.

PDE10A, sequence (Q9Y233 whole entry): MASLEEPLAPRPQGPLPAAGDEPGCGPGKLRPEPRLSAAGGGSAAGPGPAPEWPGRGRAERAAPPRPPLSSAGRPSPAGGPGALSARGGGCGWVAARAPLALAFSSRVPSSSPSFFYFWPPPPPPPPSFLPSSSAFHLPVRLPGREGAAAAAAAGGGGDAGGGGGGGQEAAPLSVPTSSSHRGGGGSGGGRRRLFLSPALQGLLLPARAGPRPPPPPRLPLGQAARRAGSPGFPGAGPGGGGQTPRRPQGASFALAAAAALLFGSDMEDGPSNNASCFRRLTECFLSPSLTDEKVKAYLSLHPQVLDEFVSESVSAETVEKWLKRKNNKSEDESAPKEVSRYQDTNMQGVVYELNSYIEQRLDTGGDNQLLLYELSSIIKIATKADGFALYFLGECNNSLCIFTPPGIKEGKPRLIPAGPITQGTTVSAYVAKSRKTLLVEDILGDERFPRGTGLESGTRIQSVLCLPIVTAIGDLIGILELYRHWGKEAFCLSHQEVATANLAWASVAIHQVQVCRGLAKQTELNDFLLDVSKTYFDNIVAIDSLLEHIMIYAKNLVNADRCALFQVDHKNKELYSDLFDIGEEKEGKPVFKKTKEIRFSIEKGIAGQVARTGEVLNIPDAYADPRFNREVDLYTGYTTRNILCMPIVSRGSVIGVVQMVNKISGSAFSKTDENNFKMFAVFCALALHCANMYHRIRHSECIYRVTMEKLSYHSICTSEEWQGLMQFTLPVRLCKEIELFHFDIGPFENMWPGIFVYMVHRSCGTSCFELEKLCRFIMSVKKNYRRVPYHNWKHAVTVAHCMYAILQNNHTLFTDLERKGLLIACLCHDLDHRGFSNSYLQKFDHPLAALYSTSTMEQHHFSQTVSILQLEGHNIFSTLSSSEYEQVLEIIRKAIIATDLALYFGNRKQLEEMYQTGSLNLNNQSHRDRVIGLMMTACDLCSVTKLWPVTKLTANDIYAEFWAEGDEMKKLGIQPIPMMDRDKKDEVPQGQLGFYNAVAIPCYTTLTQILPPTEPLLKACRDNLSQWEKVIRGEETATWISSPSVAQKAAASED

As to `COCc1ccc(C(C)=O)c2sc(C(=O)Nc3cc(C(C)(C)O)c4ccccc4n3)c(C)c12` [Example 26, 7-Acetyl-N-(4-(2-hydroxypropan-2-yl)quinolin-2-yl)-4-(methoxymethyl)-3-methylbenzo[b]thiophene-2-carboxamide], the inhibition in vivo at 10 mg/kg in the assay on Male C57BL/6 Cr mice was determined as 84%. The molecule also showed an IC50 on PDE10A of 1800 pM.
As for `COCc1ccc(C(C)=O)c2sc(C(=O)Nc3cc(CN4CCC(O)CC4)c4ccccc4n3)c(C)c12` [Example 36, 7-Acetyl-N-(4-((4-hydroxypiperidin-1-yl)methyl)quinolin-2-yl)-4-(methoxymethyl)-3-methylbenzo[b]thiophene-2-carboxamide], in the assay on Male C57BL/6 Cr mice, the inhibition in vivo at 10 mg/kg was determined as 69%. For the same molecule, the IC50 against PDE10A was 350 pM.
For `CCc1c(C(=O)Nc2cc(CN3CC[C@@H](O)C3)c3ccccc3n2)sc2c(C(C)=O)ccc(COC)c12` [Example 42, (R)-7-Acetyl-3-ethyl-N-(4-((3-hydroxypyrrolidin-1-yl)methyl)quinolin-2-yl)-4-(methoxymethyl)benzo[b]thiophene-2-carboxamide], the inhibition in vivo at 10 mg/kg in the assay with Male C57BL/6 Cr mice was 85%. This molecule returned an IC50 on PDE10A of 920 pM.
Consider `COCc1ccc(C(C)=O)c2sc(C(=O)Nc3cc(CN4CCOCC4)c4ccccc4n3)c(C)c12` [Example 44, 7-Acetyl-4-(methoxymethyl)-3-methyl-N-(4-(morpholinomethyl)quinolin-2-yl)benzo[b]thiophene-2-carboxamide], for which, in the assay with Male C57BL/6 Cr mice, the inhibition in vivo at 10 mg/kg came to 104%. For the same molecule, on PDE10A, the midpoint of inhibition, the IC50, lay at 2100 pM.
On the same counts, the results for `COCc1ccc(C(C)=O)c2sc(C(=O)Nc3cc(CN4CC[C@@H](F)C4)c4ccccc4n3)c(C)c12` [Example 45, (R)-7-Acetyl-N-(4-((3-fluoropyrrolidin-1-yl)methyl)quinolin-2-yl)-4-(methoxymethyl)-3-methylbenzo[b]thiophene-2-carboxamide] are 97% and 500 pM.
As to `COCc1ccc(C(C)=O)c2sc(C(=O)Nc3cc(CN4CC(O)C4)c4ccccc4n3)c(C)c12` [Example 47, 7-Acetyl-N-(4-((3-hydroxyazetidin-1-yl)methyl)quinolin-2-yl)-4-(methoxymethyl)-3-methylbenzo[b]thiophene-2-carboxamide dihydrochloride], the inhibition in vivo at 10 mg/kg in the assay on Male C57BL/6 Cr mice stood at 73%. The molecule also returned an IC50 against PDE10A of 490 pM.
On to `COCc1ccc(C(C)=O)c2sc(C(=O)Nc3cc(N)c4ccccc4n3)c(C)c12` [Example 54, 7-Acetyl-N-(4-aminoquinolin-2-yl)-4-(methoxymethyl)-3-methylbenzo[b]thiophene-2-carboxamide], for which, in the assay with Male C57BL/6 Cr mice, the inhibition in vivo at 10 mg/kg was determined as 68%. It took 54 pM to reach half-maximal inhibition at PDE10A (IC50).
Consider `COCc1ccc(C(C)=O)c2sc(C(=O)Nc3cc(N4CCN(C)CC4)c4ccccc4n3)c(C)c12` [Example 57, 7-Acetyl-4-(methoxymethyl)-3-methyl-N-(4-(4-methylpiperazin-1-yl)quinolin-2-yl)benzo[b]thiophene-2-carboxamide], for which, in the assay with Male C57BL/6 Cr mice, the inhibition in vivo at 10 mg/kg is 86%. The molecule also came in with an IC50 on PDE10A of 1600 pM.
For the molecule `COCc1ccc(C(=O)C(C)C)c2sc(C(=O)Nc3cc(CN4CC[C@@H](O)C4)c4ccccc4n3)c(C)c12` [Example 59, (R)—N-(4-((3-Hydroxypyrrolidin-1-yl)methyl)quinolin-2-yl)-7-isobutyryl-4-(methoxymethyl)-3-methylbenzo[b]thiophene-2-carboxamide dihydrochloride], the inhibition in vivo at 10 mg/kg in the assay on Male C57BL/6 Cr mice amounted to 67%. In addition, half-maximal inhibition at PDE10A (IC50) was put at 310 pM.
For the molecule `COCc1ccc(C(C)=O)c2sc(C(=O)Nc3ccc4c(CN5CC[C@H](O)C5)cccc4n3)c(C)c12` [Example 63, (S)-7-Acetyl-N-(5-((3-hydroxypyrrolidin-1-yl)methyl)quinolin-2-yl)-4-(methoxymethyl)-3-methylbenzo[b]thiophene-2-carboxamide dihydrochloride], the inhibition in vivo at 10 mg/kg in the assay on Male C57BL/6 Cr mice was determined as 84%. Besides, on PDE10A, the IC50 was 1100 pM.
`COCc1ccc(C(C)=O)c2sc(C(=O)Nc3ccc4c(CN5CC(O)C5)cccc4n3)c(C)c12` [Example 65, 7-Acetyl-N-(5-((3-hydroxyazetidin-1-yl)methyl)quinolin-2-yl)-4-(methoxymethyl)-3-methylbenzo[b]thiophene-2-carboxamide dihydrochloride]: the inhibition in vivo at 10 mg/kg with Male C57BL/6 Cr mice is 37%. The molecule further showed an IC50 against PDE10A of 390 pM.
Regarding `COCc1ccc(C(C)=O)c2sc(C(=O)Nc3ccc4c(CN5CC(OC)C5)cccc4n3)c(C)c12` [Example 66, 7-Acetyl-N-(5-((3-methoxyazetidin-1-yl)methyl)quinolin-2-yl)-4-(methoxymethyl)-3-methylbenzo[b]thiophene-2-carboxamide], the inhibition in vivo at 10 mg/kg with Male C57BL/6 Cr mice was determined as 91%. The same molecule had an IC50 at PDE10A of 1200 pM.
On the same counts, the results for `COCCOCc1cccc2nc(NC(=O)c3sc4c(C(C)=O)ccc(COC)c4c3C)ccc12` [Example 71, 7-Acetyl-N-(5-((2-methoxyethoxy)methyl)quinolin-2-yl)-4-(methoxymethyl)-3-methylbenzo[b]thiophene-2-carboxamide hydrochloride] are 89% and 750 pM.
As for `COCc1ccc(C(C)=O)c2sc(C(=O)Nc3ccc4c(COCCO)cccc4n3)c(C)c12` [Example 72, 7-Acetyl-N-(5-((2-hydroxyethoxy)methyl)quinolin-2-yl)-4-(methoxymethyl)-3-methylbenzo[b]thiophene-2-carboxamide hydrochloride], the inhibition in vivo at 10 mg/kg in the assay on Male C57BL/6 Cr mice worked out at 83%. The molecule further registered an IC50 against PDE10A of 540 pM.
Regarding `COCc1ccc(C(C)=O)c2sc(C(=O)Nc3ccc4c(C(C)O)cccc4n3)c(C)c12` (centres unmarked) [Example 76, 7-Acetyl-N-(5-(1-hydroxyethyl)quinolin-2-yl)-4-(methoxymethyl)-3-methylbenzo[b]thiophene-2-carboxamide], the inhibition in vivo at 10 mg/kg in the assay with Male C57BL/6 Cr mice is 102%. Moreover, at PDE10A, half-maximal inhibition (IC50) required 530 pM.
As for `COCc1ccc(C(C)=O)c2sc(C(=O)Nc3ccc4c(COC(=O)[C@@H](N)C(C)C)cccc4n3)c(C)c12` [Example 84, (S)-(2-(7-Acetyl-4-(methoxymethyl)-3-methylbenzo[b]thiophene-2-carboxamido)quinolin-5-yl)methyl-2-amino-3-methylbutanoate], the inhibition in vivo at 10 mg/kg with Male C57BL/6 Cr mice came to 92%. At PDE10A, this molecule displayed an IC50 of 7100 pM.
Take `COCc1ccc(C(C)=O)c2sc(C(=O)Nc3ccc4c(COC(=O)CN)cccc4n3)c(C)c12` [Example 85, (2-(7-Acetyl-4-(methoxymethyl)-3-methylbenzo[b]thiophene-2-carboxamido)quinolin-5-yl)methyl-2-aminoacetate]: the inhibition in vivo at 10 mg/kg in the assay with Male C57BL/6 Cr mice turned out to be 85%. The IC50 against PDE10A came out at 1100 pM.
Turning to `COCc1ccc(C(C)=O)c2sc(C(=O)Nc3ccc4c(COC(=O)[C@H](C)N)cccc4n3)c(C)c12` [Example 86, (S)-(2-(7-Acetyl-4-(methoxymethyl)-3-methylbenzo[b]thiophene-2-carboxamido)quinolin-5-yl)methyl-2-aminopropanoate], the inhibition in vivo at 10 mg/kg with Male C57BL/6 Cr mice is 88%. On PDE10A, the IC50 is 1100 pM.
`COCc1ccc(C(C)=O)c2sc(C(=O)Nc3ccc4c(COP(=O)(O)O)cccc4n3)c(C)c12` [Example 87, (2-(7-Acetyl-4-(methoxymethyl)-3-methylbenzo[b]thiophene-2-carboxamido)quinolin-5-yl)methyl dihydrogen phosphate hydrochloride]: the inhibition in vivo at 10 mg/kg in the assay with Male C57BL/6 Cr mice was 92%. Moreover, the IC50 against PDE10A was 600 pM.
On the same counts, the results for `COCc1ccc(C(C)=O)c2sc(C(=O)Nc3ccc4c(C(=O)N(C)C)cccc4n3)c(C)c12` [Example 97, 2-(7-Acetyl-4-(methoxymethyl)-3-methylbenzo[b]thiophene-2-carboxamido)-N,N-dimethylquinoline-5-carboxamide] are 50% and 260 pM.
As for `COCc1ccc(C(C)=O)c2sc(C(=O)Nc3ccc4c(C(=O)N5CC(O)C5)cccc4n3)c(C)c12` [Example 101, 7-Acetyl-N-(5-((3-hydroxyazetidin-1-yl)carbonyl)quinolin-2-yl)-4-(methoxymethyl)-3-methylbenzo[b]thiophene-2-carboxamide], the inhibition in vivo at 10 mg/kg in the assay on Male C57BL/6 Cr mice was 35%. The molecule also gave an IC50 at PDE10A of 110 pM.
In the case of `[2H]C([2H])(OC)c1ccc(C(C)=O)c2sc(C(=O)Nc3cc(C([2H])([2H])N4CC[C@@H](O)C4)c4ccccc4n3)c(C)c12` [Example 116, (R)-7-Acetyl-N-(4-((3-hydroxypyrrolidin-1-yl)(^2H2)methyl)quinolin-2-yl)-4-(methoxy(^2H2)methyl)-3-methylbenzo[b]thiophene-2-carboxamide], the inhibition in vivo at 10 mg/kg in the assay with Male C57BL/6 Cr mice stood at 180%. The molecule also returned an IC50 on PDE10A of 150 pM.
With `[2H]C([2H])([2H])OCc1cccc2nc(NC(=O)c3sc4c(C(C)=O)ccc(COC)c4c3C)ccc12` [Example 117, 7-Acetyl-4-(methoxymethyl)-N-(5-((^2H3)methoxymethyl)quinolin-2-yl)-3-methylbenzo[b]thiophene-2-carboxamide], the inhibition in vivo at 10 mg/kg in the assay with Male C57BL/6 Cr mice amounted to 57%. Also, on PDE10A, the IC50 was determined as 610 pM.
Turning to `[2H]C([2H])([2H])OCc1ccc(C(C)=O)c2sc(C(=O)Nc3ccc4c(CO)cccc4n3)c(C)c12` [Example 120, 7-Acetyl-N-(5-(hydroxymethyl)quinolin-2-yl)-4-((^2H3)methoxymethyl)-3-methylbenzo[b]thiophene-2-carboxamide], in the assay on Male C57BL/6 Cr mice, the inhibition in vivo at 10 mg/kg was determined as 52%.

As a reminder, the inhibition in vivo is the drop in the measured response relative to a control, in per cent. Usually IC50 stands for the concentration at which inhibition is half-maximal. Lower therefore signals greater potency.

The values are drawn from US9464076B2, “Benzothiophene derivative” (Daiichi Sankyo Company, Limited, priority 2013, dated 2016).
